Data on 12 molecules can be found in PubChem BioAssay (NCI).

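All cell lines were grown in 96-well plates and treated with compound for 48 hours. GI50 is the concentration that inhibits growth by half. The concentration for full growth arrest is given as TGI.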

What all share (assay): inhibition of tumour cell growth, NCI panel, 48 h
Assay [1] relates to SK-MEL-2 melanoma.
For assay [2], the system named is T-47D breast.
The subject of assay [3] is PC-3 prostate.
Assay [4] relates to HCT-116 colon.
The subject of assay [5] is OVCAR-3 ovarian.
Assay [6] has as its system A498 renal.
Assay [7] concerns HOP-62 NSCLC.
For assay [8], the system named is TK-10 renal.
Assay [9] concerns NCI-H460 lung.
The subject of assay [10] is KM12 colon.
The subject of assay [11] is OVCAR-8 ovarian.
The test system of assay [12] is RPMI-8226 leukemia.
Assay [13] deals with NCI-H226 lung.
The subject of assay [14] is MDA-MB-231 breast.

For the molecule `O=[N+]([O-])c1ccc(Cc2nc3cc4ccccc4cc3[nH]2)cc1C(F)(F)F`, the TGI in [1] is 44.4 µM; in assay [2] it was 21.6 µM; in assay [3] it was over 100 µM; in assay [4] it was 26.8 µM; in assay [5], 26 µM; in assay [6] it was 33.5 µM. The TGI was 27.3 µM in assay [7]; 35.8 µM in assay [8]; 38.5 µM in assay [9]; 30.3 µM in assay [10]; 48.5 µM in [11].
Consider `O=c1ccn(Cc2ccccc2CCl)c(=O)[nH]1`, for which the TGI in [1] was 89 µM; in assay [2], over 100 µM; in assay [3], over 100 µM; in assay [4], 46 µM; in assay [5] it was 42 µM; in assay [7], 52.7 µM. The TGI in assay [8] was over 100 µM; in [9], over 100 µM; in assay [10], 83.3 µM; in assay [11] it was 55.8 µM.
On to `CO[C@H](C(=O)O[C@H]1C(=O)N2CC[C@@H]3CCC[C@H]1C32C)c1ccccc1` (some centres undefined), for which the TGI in assay [1], in assay [12], in assay [13], in [4], in [5] and in [7] was over 100 µM throughout. Besides, the TGI in assay [9], in assay [10] and in assay [11] was over 100 µM each time.
On to `O=C1C[C@@H]2[C@@H](CCC23CCCC3)N1`, for which the TGI in assay [1], in [12], in assay [13], in assay [4], in [5] and in assay [6] was over 100 µM throughout. Besides, the TGI in assay [7], in [8], in assay [9], in [10] and in assay [11] was over 100 µM throughout.
In the case of `Cc1cn(CC2=NC3CCCCC3N2)c(=O)[nH]c1=O` (centres undefined), the TGI in assay [1], in [12], in assay [14], in assay [13], in assay [2] and in assay [3] was over 100 µM throughout. Besides, the TGI in [4], in [6], in assay [7], in [8], in [9] and in [11] was over 100 µM in each case.
In the case of `O=C(CSc1nnc(Cc2ccccc2)o1)Nc1ccc(Cl)cc1[N+](=O)[O-]`, the TGI in assay [1] is 29.8 µM; in [12] it was 49.6 µM; in assay [13], 47.6 µM; in assay [4], 27.7 µM; in [7], 31.3 µM; in assay [8] it was 30.8 µM. In [11], the TGI is over 100 µM.
On to `COC(=O)C1CC(c2ccc(Cl)cc2)=NO1` (centres undefined), for which the TGI in assay [1], in assay [12], in assay [13], in assay [4], in [5] and in [6] was over 100 µM each time. Besides, the TGI in assay [7], in assay [8], in assay [9], in assay [10] and in assay [11] was over 100 µM in each case.
For `Clc1ccc(OCc2nnc3sc(SSc4nn5c(COc6ccc(Cl)cc6)nnc5s4)nn23)cc1`, the TGI in assay [1], in assay [12], in assay [14], in assay [13], in assay [2] and in assay [4] was over 100 µM each time. The TGI in [5] is 80.4 µM; in assay [6] it was 86 µM; in assay [7], over 100 µM; in [8], over 100 µM; in [9] it was over 100 µM; in [10], over 100 µM. In [11], this molecule yielded a TGI of over 100 µM. Moreover, the GI50 in [5] was 35.3 µM; in assay [6], 28.9 µM; in assay [8] it was 73.2 µM.
As for `Fc1ccc(Oc2nc3ccccc3nc2-c2ccccc2)cc1`, the TGI in assay [1], in assay [12], in assay [14], in assay [13], in [3] and in assay [4] was over 100 µM throughout. For the same molecule, the TGI in [5], in [6], in assay [7], in [8], in assay [9] and in assay [10] was over 100 µM throughout.
With `CC1OC(OC2C(OC(=O)[C@]34CCC(C)(C)CC3C3=CCC5[C@@]6(C)C[C@H](O)[C@H](OC7OC(COC8OC(CO)C(O)C(O)C8O)C(O)C(O)C7O)[C@@](C)(C(=O)O)C6CC[C@@]5(C)C3(C)CC4)OCC(O)C2O)C(O)C(O)C1OC1OCC(O)C(O)C1O` (some centres undefined), the TGI in [1], in assay [12], in assay [13], in assay [5], in [6] and in [7] was over 100 µM in each case. Moreover, the TGI in assay [8], in assay [9], in [10] and in [11] was over 100 µM throughout.
Take `N#CC(C(=O)/C(=N/NC(=O)c1ccccc1O)C(C#N)c1ccc(Br)cc1)c1ccc(Br)cc1` (centres undefined): the TGI in [1] is 25 µM; in assay [13], 19.1 µM; in [4] it was 26.6 µM; in assay [5] it was 26.4 µM; in [6] it was 26.8 µM; in assay [7], 29.5 µM. Also, the TGI in assay [8] was 39.1 µM; in assay [9] it was 40 µM; in [10], 25.5 µM; in assay [11] it was 19.8 µM.
In the case of `CN(C)CCCOc1ccc(/C=C2/CCC/C(=C/c3ccc(OCCCN(C)C)cc3)C2=O)cc1`, the TGI in assay [1] was determined as 3.69 µM; in [12], 3.43 µM; in [4], 2.76 µM; in [5], 5.56 µM; in assay [6], 3.65 µM; in assay [7] it was 4.49 µM. Besides, the TGI stood at 5.33 µM in [8], 4.16 µM in [9], 2.93 µM in [10] and 6.5 µM in [11].
